Data from ChEMBL document CHEMBL3414512, “Discovery of orally active anticancer candidate CFI-400945 derived from biologically promising spirooxindoles: success and challenges” (Eur J Med Chem, 2015).

Key:
[1] = target: Fibroblast growth factor receptor 1 (Homo sapiens, UniProt P11362); test: Inhibition of FGFR1 (unknown origin)
[2] = target: Serine/threonine-protein kinase PLK1 (Homo sapiens, UniProt P53350); test: Inhibition of PLK-1 (unknown origin)
[3] = target: Serine/threonine-protein kinase PLK3 (Homo sapiens, UniProt Q9H4B4); test: Inhibition of PLK-3 (unknown origin)
[4] = Inhibition of SLC34A2/ROS (unknown origin); parameters: species or system Homo sapiens
[5] = target: Serine/threonine-protein kinase PLK2 (Homo sapiens, UniProt Q9NYY3); test: Inhibition of PLK-2 (unknown origin)
Serine/threonine-protein kinase PLK2, sequence (Q9NYY3 whole entry): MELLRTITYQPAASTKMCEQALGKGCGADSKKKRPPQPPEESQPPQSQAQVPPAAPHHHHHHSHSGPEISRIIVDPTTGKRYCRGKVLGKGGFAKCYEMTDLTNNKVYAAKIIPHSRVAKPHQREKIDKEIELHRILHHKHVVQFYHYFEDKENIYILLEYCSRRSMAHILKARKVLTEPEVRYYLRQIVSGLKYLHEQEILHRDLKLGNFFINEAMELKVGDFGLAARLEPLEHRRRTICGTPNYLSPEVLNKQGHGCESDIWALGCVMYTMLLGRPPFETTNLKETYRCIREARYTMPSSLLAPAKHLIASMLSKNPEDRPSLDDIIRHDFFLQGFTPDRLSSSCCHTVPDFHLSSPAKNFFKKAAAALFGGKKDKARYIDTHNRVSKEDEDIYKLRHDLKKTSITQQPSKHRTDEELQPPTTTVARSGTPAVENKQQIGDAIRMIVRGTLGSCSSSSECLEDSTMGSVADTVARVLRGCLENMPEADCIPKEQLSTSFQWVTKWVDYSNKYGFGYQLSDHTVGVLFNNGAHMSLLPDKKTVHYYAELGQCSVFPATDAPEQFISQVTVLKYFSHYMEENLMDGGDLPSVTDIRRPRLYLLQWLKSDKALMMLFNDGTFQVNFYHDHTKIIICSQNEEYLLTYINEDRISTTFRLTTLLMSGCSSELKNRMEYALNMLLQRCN

Serine/threonine-protein kinase PLK3, sequence (Q9H4B4 whole entry): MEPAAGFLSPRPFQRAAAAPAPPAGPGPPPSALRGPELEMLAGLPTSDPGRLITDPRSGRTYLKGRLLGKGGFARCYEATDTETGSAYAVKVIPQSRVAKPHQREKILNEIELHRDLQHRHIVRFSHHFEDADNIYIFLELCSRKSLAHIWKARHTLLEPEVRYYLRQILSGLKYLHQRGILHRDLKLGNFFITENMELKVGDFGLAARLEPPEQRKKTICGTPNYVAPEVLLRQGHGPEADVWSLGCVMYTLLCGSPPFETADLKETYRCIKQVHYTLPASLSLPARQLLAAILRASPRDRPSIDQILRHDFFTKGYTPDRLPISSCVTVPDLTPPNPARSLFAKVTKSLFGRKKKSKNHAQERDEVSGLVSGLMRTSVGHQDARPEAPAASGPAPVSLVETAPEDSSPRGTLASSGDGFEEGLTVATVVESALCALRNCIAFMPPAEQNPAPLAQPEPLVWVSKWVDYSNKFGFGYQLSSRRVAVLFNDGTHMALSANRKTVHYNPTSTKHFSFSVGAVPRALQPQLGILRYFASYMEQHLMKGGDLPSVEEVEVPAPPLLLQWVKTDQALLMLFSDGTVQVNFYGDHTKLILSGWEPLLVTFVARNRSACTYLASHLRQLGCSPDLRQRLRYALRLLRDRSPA
Serine/threonine-protein kinase PLK1, sequence (P53350 whole entry): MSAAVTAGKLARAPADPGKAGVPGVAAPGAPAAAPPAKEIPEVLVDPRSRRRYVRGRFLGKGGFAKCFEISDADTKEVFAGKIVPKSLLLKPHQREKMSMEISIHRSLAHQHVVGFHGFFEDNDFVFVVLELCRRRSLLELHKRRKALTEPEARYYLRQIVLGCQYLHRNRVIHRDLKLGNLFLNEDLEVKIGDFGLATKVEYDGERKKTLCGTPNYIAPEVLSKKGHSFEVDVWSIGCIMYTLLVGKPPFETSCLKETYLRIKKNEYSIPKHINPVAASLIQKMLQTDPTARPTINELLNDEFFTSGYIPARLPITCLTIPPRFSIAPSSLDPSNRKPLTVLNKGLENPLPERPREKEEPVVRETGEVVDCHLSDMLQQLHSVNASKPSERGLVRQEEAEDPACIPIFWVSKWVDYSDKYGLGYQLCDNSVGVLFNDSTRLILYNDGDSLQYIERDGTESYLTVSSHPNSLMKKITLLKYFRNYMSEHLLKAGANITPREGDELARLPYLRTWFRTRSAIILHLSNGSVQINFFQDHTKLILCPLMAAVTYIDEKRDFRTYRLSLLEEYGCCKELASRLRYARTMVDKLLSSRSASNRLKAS
Fibroblast growth factor receptor 1, sequence (P11362 whole entry): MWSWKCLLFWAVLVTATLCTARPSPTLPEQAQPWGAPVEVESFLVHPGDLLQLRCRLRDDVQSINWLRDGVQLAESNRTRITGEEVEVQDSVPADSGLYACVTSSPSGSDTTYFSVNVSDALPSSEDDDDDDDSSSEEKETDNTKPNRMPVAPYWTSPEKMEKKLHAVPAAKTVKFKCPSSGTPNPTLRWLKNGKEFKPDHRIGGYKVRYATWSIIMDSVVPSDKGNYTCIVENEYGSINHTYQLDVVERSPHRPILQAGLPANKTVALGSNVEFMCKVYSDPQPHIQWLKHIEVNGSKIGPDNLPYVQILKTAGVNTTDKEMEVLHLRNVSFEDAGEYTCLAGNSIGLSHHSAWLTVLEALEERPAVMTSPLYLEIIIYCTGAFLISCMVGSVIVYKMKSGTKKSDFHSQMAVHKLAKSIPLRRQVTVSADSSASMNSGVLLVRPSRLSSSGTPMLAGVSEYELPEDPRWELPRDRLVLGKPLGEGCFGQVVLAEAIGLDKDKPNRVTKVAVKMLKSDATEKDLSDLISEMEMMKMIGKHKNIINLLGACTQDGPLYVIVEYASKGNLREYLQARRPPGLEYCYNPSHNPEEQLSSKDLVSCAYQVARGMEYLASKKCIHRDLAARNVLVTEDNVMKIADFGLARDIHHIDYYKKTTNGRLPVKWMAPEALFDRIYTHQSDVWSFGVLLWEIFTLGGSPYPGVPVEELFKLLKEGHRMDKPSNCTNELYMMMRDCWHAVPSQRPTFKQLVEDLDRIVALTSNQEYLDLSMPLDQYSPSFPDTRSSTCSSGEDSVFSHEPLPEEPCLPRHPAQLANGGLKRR

EC50 [1]: 1100 nM
IC50 [2]: > 50000 nM
IC50 [3]: > 50000 nM
EC50 [4]: 466 nM
IC50 [5]: > 50000 nM
SMILES: COc1ccc2c(c1)[C@]1(C[C@H]1c1ccc3c(/C=C/c4ccc(CN5C[C@@H](C)O[C@@H](C)C5)cc4)n[nH]c3c1)C(=O)N2 [OCIFISERTIB]
